How the values were obtained:
[1] = test system: patients with unresectable advanced or metastatic renal cell carcinoma (RCC); assay: Phase 2 trial in RCC after one prior VEGF-targeted treatment: efficacy (PFS, OS, ORR), investigator assessment, RECIST 1.1; LENVIMA 18 mg+everolimus 5 mg vs LENVIMA 24 mg vs everolimus 10 mg; conditions: combo 18 mg+5 mg
Method: A multicenter, randomized, open-label, trial was conducted to determine the safety and efficacy of lenvatinib administered alone or in combination with everolimus in subjects with unresectable advanced or metastatic renal cell carcinoma (RCC). The trial consisted of a Phase 1b dose finding and a Phase 2 portion. The Phase 2 portion enrolled a total of 153 patients with unresectable advanced or metastatic RCC following one prior VEGF-targeted treatment. Patients were required, inter alia, to have histological confirmation of predominant clear cell RCC, radiographic evidence of disease progression according to Response Evaluation Criteria in Solid Tumors Version 1.1 (RECIST), one prior VEGF-targeted therapy, and Eastern Cooperative Oncology Group (ECOG) Performance Status of 0 or 1.
Patients were randomly allocated to one of 3 arms: (i) LENVIMA® (mesylate salt of lenvatinib) 18 mg+everolimus 5 mg, (ii) LENVIMA® 24 mg, or (iii) everolimus 10 mg, using a 1:1:1 ratio. Patients were stratified by hemoglobin level (≤13 g/dL vs. >13 g/dL for males and ≤11.5 g/dL vs >11.5 g/dL for females) and corrected serum calcium (≥10 mg/dL vs. <10 mg/dL).
The primary efficacy outcome measure, based on investigator assessed tumor response, was progression-free survival (PFS) of the LENVIMA® plus everolimus arm vs. the everolimus arm and of the LENVIMA® arm vs. the everolimus arm. Other efficacy outcome measures included investigator-assessed overall survival (OS) and objective response rate (ORR).
Tumor assessments were evaluated according to RECIST.

[2] = test system: patients with unresectable advanced or metastatic renal cell carcinoma (RCC); assay: Same Phase 2 trial: PFS and ORR by retrospective independent blinded review of scans; type: in vivo, human; conditions: combo 18 mg+5 mg; everolimus 10 mg
[3] = test system: patients with unresectable advanced or metastatic renal cell carcinoma (RCC); assay: Same Phase 2 trial: adverse reactions (CTCAE grades), once daily dosing;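 note: adverse events are any unwanted sign, symptom, abnormal lab finding or disease occurring in time with treatment, whether or not drug-related, and CTCAE grade expresses their severity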
Method: The CTCAE provides a grading (severity) scale for each adverse event term. […] The CTCAE grade refers to the severity of the AE.
The safety data described below are derived from the trial described in Example 1, which randomized (1:1:1) patients with unresectable advanced or metastatic renal cell carcinoma (RCC) to LENVIMA® 18 mg+everolimus 5 mg (n=51), LENVIMA® 24 mg (n=52), or everolimus 10 mg (n=50) once daily.

[4] = test system: patients with unresectable advanced or metastatic renal cell carcinoma (RCC); assay: Same Phase 2 trial: laboratory abnormalities, Grade 3-4; type: in vivo, human; conditions: combo (head prints 10 mg+5 mg), LENVIMA 24 mg, everolimus 10 mg
Text: Table 4 provides a summary of laboratory abnormalities observed in the patients in the RCC trial described in Example 1.

[5] = cited from earlier work
rabbits = conditions: rabbit, in vivo, po; cited from earlier work
rats = conditions: rat, in vivo, po; cited from earlier work
[6] = everolimus 10 mg, cutoff Jul. 31, 2015
[7] = everolimus 10 mg, cutoff Jun. 13, 2014
[8] = LENVIMA 24 mg, everolimus 10 mg
[9] = combo 18 mg+5 mg, LENVIMA 24 mg, everolimus 10 mg
[10] = combo 18 mg+5 mg, LENVIMA 24 mg

## CO[C@H]1C[C@@H]2CC[C@@H](C)[C@@](O)(O2)C(=O)C(=O)N2CCCC[C@H]2C(=O)O[C@H]([C@H](C)C[C@@H]2CC[C@@H](OCCO)[C@H](OC)C2)CC(=O)[C@H](C)/C=C(\C)[C@@H](O)[C@@H](OC)C(=O)[C@H](C)C[C@H](C)/C=C/C=C/C=C/1C [Everolimus, (1R,9S,12S,15R,16E,18R,19R,21R,23 S,24E,26E,28E,30S,32S,35R)-1,18-dihydroxy-12-{(1R)-2-[(1 S,3R,4R)-4-(2-hydroxyethoxy)-3-methoxycyclohexyl]-1-methylethyl}-19,30-dimethoxy-15,17,21,23,29,35-hexamethyl-11,36-dioxa-4-aza-tricyclo[30.3.1.0^4,9]hexatriaconta-16,24,26,28-tetraene-2,3,10,14,20-pentaone]
[1]; everolimus 10 mg
  Number of complete responses (%): 0 n (%)
  Number of partial responses (%): 3 (6) n (%)
  Number of progressive disease (%): 12 (24) n (%)
  Number of stable disease (%): 31 (62) n (%)
[1]; [6]
  Overall Survival (updated analysis): Number of deaths, n (%): 37 (74) n (%)
[1]; [7]
  Overall Survival: Number of deaths (%): 26 (52) n (%)
[2]
  ORR, independent blinded review: no subject had an objective response
[3]; [8]
  arterial thromboembolic events, Grade 3 or greater: 4%
[3]; [9]
  Adverse reactions led to dose reductions or interruption, patients: 54%
  Arthralgia/myalgia, All Grades: 32%
  Arthralgia/myalgia, Grades 3-4: 0%
  Confusional state, All Grades: 0%
  Confusional state, Grades 3-4: 0%
  Constipation, All Grades: 18%
  Constipation, Grades 3-4: 0%
  Cough, All Grades: 30%
  Cough, Grades 3-4: 0%
  Decreased appetite, All Grades: 18%
  Decreased appetite, Grades 3-4: 0%
  Decreased weight, All Grades: 8%
  Decreased weight, Grades 3-4: 0%
  Dehydration, All Grades: 2%
  Dehydration, Grades 3-4: 0%
  Diarrhea, All Grades: 34%
  Diarrhea, Grades 3-4: 2%
  Discontinuation of treatment due to hemorrhagic events, patients: no discontinuations
  Dyspepsia, All Grades: 12%
  Dyspepsia, Grades 3-4: 0%
  Dysphonia, All Grades: 4%
  Dysphonia, Grades 3-4: 0%
  Dyspnea, All Grades: 28%
  Dyspnea, Grades 3-4: 8%
  Epistaxis, All Grades: 24%
  Epistaxis, Grades 3-4: 0%
  Events of renal impairment: 12%
  Fatigue, All Grades: 38%
  Gastrointestinal disorders and Abdominal pain, All Grades: 8%
  Gastrointestinal disorders and Abdominal pain, Grades 3-4: 0%
  Grade 3 or greater diarrhea, patients: 2%
  Grade 3 or greater renal failure or impairment, incidence: 2%
  Headache, Grades 3-4: 2%
  Hypertension, All Grades: 10%
  Hypertension, Grades 3-4: 2%
  Insomnia, All Grades: 2%
  Insomnia, Grades 3-4: 0%
  Musculoskeletal chest pain, All Grades: 4%
  Musculoskeletal chest pain, Grades 3-4: 0%
  Nausea, All Grades: 16%
  Nausea, Grades 3-4: 0%
  Oral inflammation, All Grades: 50%
  Oral inflammation, Grades 3-4: 4%
  Oral pain, All Grades: 4%
  Oral pain, Grades 3-4: 0%
  Proteinuria, All Grades: 14%
  Proteinuria, Grades 3-4 (text: Grade 3 or greater): 2%
  Pruritus, All Grades: 14%
  Pruritus, Grades 3-4: 0%
  Pyrexia, All Grades: 10%
  QT/QTc interval prolongation, patients: No reports
  Rash, All Grades: 30%
  Rash, Grades 3-4: 0%
  Renal failure events, All Grades: 2%
  Renal failure events, Grades 3-4: 2%
  Vomiting, Grades 3-4: 0%
  arterial thromboembolic events, patients: 6%
  decreased ejection fraction and cardiac failure, Grade 3: 2%
  decreased ejection fraction and cardiac failure, patients: 4%
  epistaxis, Grade 1: 20%
  gastrointestinal perforation or fistula, patients: no patients
  hemorrhagic events, Grade 3 or greater: 2%
  hemorrhagic events, patients: 28%
  hypothyroidism, patients: 2%
  patients discontinued treatment for adverse reactions: 6 (12%) n (%)
[3]; combo 18 mg+5 mg, everolimus 10 mg
  elevation of TSH level post baseline in patients with a normal TSH at baseline: none
[3]; everolimus 10 mg
  epistaxis, Grade 2: 4%
[4]
  Alkaline phosphatase increased, Grades 3-4: 0%
  Aspartate aminotransferase (AST) increased, Grades 3-4: 0%
  Hemoglobin decreased, Grades 3-4: 16%
  Hyperglycemia, Grades 3-4: 16%
  Hyperkalemia, Grades 3-4: 2%
  Hypocalcemia, Grades 3-4: 2%
  Hypokalemia, Grades 3-4: 2%
  Hyponatremia, Grades 3-4: 6%
  Hypophosphatemia, Grades 3-4: 6%
  Lipase increased, Grades 3-4: 12%
  Lymphocyte count decreased, Grades 3-4: 20%
  Platelet count decreased, Grades 3-4: 0%
[4]; listed as everolimus
  Aspartate aminotransferase (AST) increased, Grades 3-4: no patients

## COc1cc2nccc(Oc3ccc(NC(=O)NC4CC4)c(Cl)c3)c2cc1C(N)=O [LENVIMA ®, 4-[3-chloro-4-(N′-cyclopropylureido)phenoxy]-7-methoxyquinoline-6-carboxamide methanesulfonate]
[1]; everolimus 10 mg
  Duration of response, months, median (95% CI): 7.5 (3.8, NE) months
  Number of complete responses (%): 0 n (%)
  Number of partial responses (%): 14 (27) n (%)
  Number of progressive disease (%): 3 (6) n (%)
  Number of stable disease (%): 27 (52) n (%)
[1]; [6]
  Median OS in months (95% CI), updated analysis: 19.1 (13.6, 26.2) months
  Overall Survival (updated analysis): Number of deaths, n (%): 34 (65) n (%)
[1]; [7]
  Median OS in months (95% CI): 18.4 (13.3, NE) months
  Median PFS in months (95% CI): 7.4 (5.6, 10.2) months
  Overall Survival: Number of deaths (%): 26 (50) n (%)
[1]; vs everolimus 10 mg
  PFS compared with the everolimus arm (in words): improvement
[5]; ethanol (dehydrated)
  solubility in ethanol (dehydrated): practically insoluble
[5]; water
  solubility in water: slightly soluble
[3]; [8]
  arterial thromboembolic events, Grade 3 or greater: 8%
[3]; [10]
  QT/QTc interval prolongation, Grade 3 or greater events: No Grade 3 or greater events
  fatal hemorrhage cases: one case of fatal intracranial hemorrhage
[3]; [9]
  Arthralgia/myalgia, All Grades: 56%
  Arthralgia/myalgia, Grades 3-4: 4%
  Confusional state, All Grades: 4%
  Confusional state, Grades 3-4: 2%
  Cough, All Grades: 17%
  Cough, Grades 3-4: 2%
  Decreased appetite, All Grades: 58%
  Decreased appetite, Grades 3-4: 4%
  Decreased weight, All Grades: 50%
  Decreased weight, Grades 3-4: 6%
  Dehydration, All Grades: 2%
  Dehydration, Grades 3-4: 0%
  Dysphonia, All Grades: 37%
  Dysphonia, Grades 3-4: 0%
  Dyspnea, All Grades: 25%
  Dyspnea, Grades 3-4: 2%
  Epistaxis, All Grades: 8%
  Epistaxis, Grades 3-4: 0%
  Fatigue, All Grades: 52%
  Headache, Grades 3-4: 6%
  Insomnia, All Grades: 15%
  Insomnia, Grades 3-4: 0%
  Musculoskeletal chest pain, All Grades: 15%
  Musculoskeletal chest pain, Grades 3-4: 4%
  Pruritus, All Grades: 6%
  Pruritus, Grades 3-4: 0%
  Pyrexia, All Grades: 10%
  QT/QTc interval prolongation, patients: 6%
  Rash, All Grades: 15%
  Rash, Grades 3-4: 0%
  Renal failure events, All Grades: 10%
  Renal failure events, Grades 3-4: 6%
  Vomiting, Grades 3-4: 4%
[4]
  Alkaline phosphatase increased, Grades 3-4: 0%
  Aspartate aminotransferase (AST) increased, Grades 3-4: 4%
  Hemoglobin decreased, Grades 3-4: 4%
  Hyperglycemia, Grades 3-4: 8%
  Hyperkalemia, Grades 3-4: 2%
  Hypokalemia, Grades 3-4: 8%
  Hyponatremia, Grades 3-4: 6%
  Hypophosphatemia, Grades 3-4: 4%
  Lipase increased, Grades 3-4: 10%
  Lymphocyte count decreased, Grades 3-4: 4%
  Platelet count decreased, Grades 3-4: 2%
[4]; listed as LENVIMA®, methanesulfonate
  Hypocalcemia, Grades 3-4: no patients

## COc1cc2nccc(Oc3ccc(NC(=O)NC4CC4)c(Cl)c3)c2cc1C(N)=O [lenvatinib, 4-(3-chloro-4(cyclopropylaminocarbonyl)aminophenoxy)-7-methoxy-6-quinolinecarboxamide]
rabbits
  embryofetal toxicity findings: embryotoxicity, fetotoxicity, and teratogenicity
rats
  embryofetal toxicity findings: embryotoxicity, fetotoxicity, and teratogenicity
